Tested on: ObiH
Test: TTA-ADH coupled assay, ObiH screened on aromatic aldehyde substrates
Type: biochemical, Pseudomonas fluorescens
Details: 0.25-1 mM aldehyde, 100 mM L-Thr, 0.25 μM purified TTA, 30° C.
Description: (§1) High-throughput screening of purified TTAs was performed with a TTA-ADH coupled assay using purified TTA and commercially available alcohol dehydrogenase from S. cerevisiae purchased from MilliporeSigma. Aldehyde stocks were prepared in 50-100 mM solutions in DMSO or acetonitrile. Reaction mixtures were prepared in a 96-well plate with 100 μL of 100 mM phosphate buffer pH 7.5, 0.5 mM NADH, 0.4 mM PLP, 15 mM MgCl2, and 100 mM L-Thr with the addition of 0.25 mM to 1 mM aldehyde depending on the background absorbance at 340 nm (Table 4), 10 U ScADH, and 0.25 μM purified TTA unless otherwise specified. Reactions were initiated with the addition of enzyme. […] The following controls were included for every assay: reaction mixture without aldehyde, without TTA, and without enzyme (TTA or ADH). Rates were calculated by identifying the linear region at the beginning of the kinetic run and converting the depletion in absorbance to the depletion of mM NADH using an NADH standard curve.
To expand our understanding of the TTA enzyme class, we wanted a high-throughput method for rapid screening of multiple enzymes and candidate aldehyde substrates. We began by analyzing a previously reported coupled enzyme assay (FIG. 2a) based on the addition of alcohol dehydrogenase (ADH), which consumes NADH to reduce the co-product acetaldehyde in a manner that can be monitored at 340 nm. Unfortunately, this coupled assay for TTA activity suffers from false positives and confounding variables which we sought to address. […] Second, the characterized TTAs are known to catalyze the decomposition of L-Thr in the absence of an aldehyde substrate, which is an undesired reaction that also generates an acetaldehyde co-product. Another limitation of the TTA-ADH coupled assay is that many of the aromatic aldehyde candidate substrates absorb at the same measurement wavelength (Table 4). Thus, we minimized the impact of the false positives, spectral overlap, and other confounding variables by tuning enzyme and aldehyde concentrations and monitoring the undesired reactions with two controls: (1) lacking aldehyde substrate (“L-Thr”) and (2) lacking TTA (“no TTA”) where only the ADH and substrate are present. Then, we validated the TTA-ADH coupled assay by performing HPLC analysis, using the chemically synthesized β-OH-nsAA standard for the assumed product from 3, over a time course where we observed that the addition of the ScADH improves reaction rates three-fold. As previously reported by others, we were also able to improve β-OH-nsAAs yields when using the ScADH coupled to a co-factor regeneration system. As the last step of verification, we screened the TTA-ADH coupled assay with ObiH before and after photo-treatment, we observed no differences in reaction rate and continued to assay the TTAs without photo-treatment.
Upon assay validation, we hypothesized that we could rapidly probe the activity of ObiH on diverse aldehydes to expand the potential chemical handles of β-OH-nsAAs. We successfully screened ObiH against 16 unique substrates in a single experiment (FIGS. 2b,c). […] Our screen included nine substrates not previously tested with ObiH to our knowledge; activity on seven of these substrates was confirmed with new peak formation via HPLC or LC-MS (FIGS. 3-14). The new substrates include aldehydes that contain amines, conjugatable handles, or larger hydrophobic groups to improve the chemical diversification of β-OH-nsAA products. Our result supported the known general trend that aldehydes containing electron-withdrawing ring substituents are the preferred substrates of ObiH. As expected, the amine-aldehydes were very poor substrates for ObiH, which we hypothesize is because of the strong electron-donating potential of amines. Additionally, one amine-containing substrate (5) absorbed at 340 nm, so it was only tested at low concentrations of 0.25 mM aldehyde (Table 4). […]

| Molecule | activity of ObiH on aldehyde substrate (initial rate, TTA-ADH coupled assay) |
| --- | --- |
| O=Cc1ccccc1[N+](=O)[O-] [Aldehyde 3, 2-nitro-benzaldehyde] | validated the activity |
| O=Cc1ccc(C=O)cc1 [Aldehyde 7, terephthalaldehyde] | activity |
| COc1ccc(C=O)cc1 [Aldehyde 9, 4-methoxybenzaldehyde] | some activity |
| O=Cc1ccc(-c2ccccc2)cc1 [Aldehyde 10, 4-biphenylcarboxaldehyde] | some activity |
| O=Cc1ccc2ccccc2c1 [Aldehyde 12, 2-napthalaldehyde] | some activity |
| O=Cc1ccc(B(O)O)cc1 [Aldehyde 13, 4-boronobenzaldehyde] | activity |
| O=CCc1ccc([N+](=O)[O-])cc1 [Aldehyde 15, 4-nitro-phenylacetaldehyde] | validated the activity |

Tested on: not listed separately
Test: TTA-ADH coupled assay, substrate scope of TTAs on aromatic aldehydes
Type: biochemical
Details: TTA-ADH coupled assay
Description: as §1
We specifically selected substrates with ring substituents with different electron withdrawing properties (1, 3, 6, 7, 8), substituent size (12), and aldehyde chain length (15) to compare the activity of the putative TTAs to ObiH. We were also encouraged by the activity of PbTTA and KaTTA on vanillin and protocatechualdehyde which are substrates that would form products like commercially available therapeutic, Droxidopa (FIG. 18).
To explore the possibility that DbTTA and TmTTA are TTAs active on other related aldehydes, we sought to examine their activity with L-Thr and aldehyde substrates with different ring substituent position (2), bulkier, hydrophobic chemistry (10), and aldehyde chain length (14) using the TTA-ADH coupled assay.

| Molecule | TTA activity with L-Thr and aldehydes 2, 10, 14 |
| --- | --- |
| TmTTA: putative TTA, SEQ ID NO: 36, Thermocladium modestius (protein, listed as Thermocladium modestius) MREEEAIAALSKLRAIMDRHNNWRRRETINLIPSENVMSPLAEYFYLNDMMGRYAEGTIGKRYYQGVSLVDEAEQMLVDLMSSLFSSRFTDVRPISGTVANMAVYHSVAGLGEKIASLPTAAGGHISHNETGAPKAFGLRVSYLPWSQENFNVDVDAARRLIAEERPKLVLLGASLYLFPHPIKELADAAHEVGAVLMHDSAHVLGLIAGHQFPNPLELGADIMTSSTHKTFPGPQGGVIFTTREDLFKEIQRSVFPVMTSNYHLHRYASTIVTAIEMSTYGDEYAATVRSNAKALAEQLHANGLPVVAEEHGFTATHQVAMDVSKFGGGGPIAKALEDANIIVNKNMLPWDKSPVKPSGIRMGVQEMTRMGMGKGEMAAVAELIAKVVIKGVEPSKVKPEVVELRRGFTKVRYGFDLSTLGLNCPCLPLL | Neither of these proteins appeared to have any TTA activity |
| DbTTA: putative TTA, SEQ ID NO: 40, Deltaproteobacteria bacterium (protein, listed as Deltaproteobacteria bacterium) LTNNRELMDRIGYNLSQGLVSSQHTASLVALFIALHEARLTGKAFAKQVVENARTLASRLAALGVPVLARSDGQFTDNHHFFINLTGVASAPHQMERLLRAHLVVQRGMPFRNVDALRVGVQEVTRRGYGPGEMAQLAEWIASIVIGGADPEVVAPAVQAMAKRFDTIYYTGETVDGKLDLPEIAAPSAKGRWVDYRHLGNDFAMDDTEFSEIRALGAAAGAFPNQTDSTGNVSLRSGARVFVSSSGSYIKHLADGQVVELDAVDPSGELIDYHGAALPSSESLMHFLVYQNVPAGAVVHTHYLLTNQEAADFDVAVIAPQEYASIALARAVAEASKRSRIVYIQKHGLVFWGTDTADCLSQVHNFIHNRPNRRAAEAVYAS | Neither of these proteins appeared to have any TTA activity |

Same assay, conditions: purified with SUMO tag

| Molecule | TTA activity on aromatic aldehydes |
| --- | --- |
| SNTTA: putative TTA, SEQ ID NO: 38, Streptomyces sp. NRRL 30471 (protein, Streptomyces sp. NRRL 30471) MTSSDDCAASRTAPVAGRAELLALLGEIEKEQRINEAAVNLVPSENRISPWAGAPLRTDFYNRYFFNDSLDPQGWQFRGGEGIGRLEKELALPALRRLGRADHVNIRPVSGMSAMLVVLLGLGGEPGDGVVCVDAETGGHYATGRQIAMLGRRPLPVRVVAGRVDLDALRTALTSCHVPLVYLDLQNSLWELDVAGVAEVIARTSPRTVLHVDCSHTLGLILGGSHKNPLDLGADTTGGSTHKTFPGPQKGVLFTRDENLSRKIRDAQFFTISSHHFAETLALALAAAEFEHFGAAYSRQVLINARAFAHRLRERGFGVVEGGPQLTDTHQVWVRLPLEESADAFSAQLASLGIRVNVQTELPDIPEPALRLGVSEITLNGGREPAMETLAEIFALVRAGEATKAVDLFQVLPHEMGEPYFFTGLPQEAGLFHG | no TTA activity |

Tested on: not listed separately
Test: In vitro assay over 20 h with HPLC analysis (amino acid substrate specificity, diastereomeric excess)
Type: biochemical
Details: not given
Description: Metabolites of interest were quantified via high-performance liquid chromatography (HPLC) using an Agilent 1260 Infinity model equipped with a Zorbax Eclipse Plus-C18 column. To quantify aldehyde and β-OH-nsAAs, an initial mobile phase of solvent A/B=95/5 was used (solvent A, water+0.1% TFA; solvent B, acetonitrile+0.1% TFA) and maintained for 5 min. A gradient elution was performed (A/B) as follows: gradient from 95/5 to 50/50 for 5-12 min, gradient from 50/50 to 0/100 for 12-13 min, and gradient from 0/100 to 95/5 for 13-14 min. A flow rate of 1 mL min-1 was maintained, and absorption was monitored at 210, 250 and 280 nm.
We performed an in vitro assay over 20 h using 3 as the aldehyde substrate and either L-Thr, Glycine (Gly), or L-Serine (L-Ser) as the candidate amino acid. Since the TTA-ADH coupled assay is specific to L-Thr, we analyzed TTA activity via HPLC with a chemically synthesized β-OH-nsAA standard for the assumed product from 3.

| Molecule | β-OH-nsAA product formation from 3 and L-Thr |
| --- | --- |
| StTTA: TTA, SEQ ID NO: 35, Streptomyces (multi-species), first 36 N-terminal amino acids removed (protein, Streptomyces (multi-species)) GVWAGDRVAQVLERLASDFVLDNTYREQHLSLTASENYPSKLVRMLGAGLQGGFYEFAPPYPAEAGEWAFPDSGANASLVGKLTGIGRQLFEAATFDWRPNGGSVAEQAVLLGTCGRGDGFVHFAHKDGGHFALESLAGAAGVNTYHLPMVDRTLLIDVDRLATLCAEHPEIKLVILDQSFKLRWQPLAQIRAALPEGVFLAYDASHDGALIAGGVLPQPTLLGADAVHGNTHKTIAGPQKAYIAFRDAEHPKLRAVSDWVCPQMQSNSHAELIAPMYVALSEVALYGHAYARQILANAQALAHGLHEEGVRVSGESFGFTETHQVHVVTGSAADALRLSLGELAQAGIRTTNIEVPGANGLHGLRLGVQAMTRRGLREPQMREVARLVAKVVLRRAEPAAVRAEVADLLQHHPLDQLAYSFDSYVDSPAAARLLGEVFR | active |
| TmTTA: putative TTA, SEQ ID NO: 36, Thermocladium modestius (protein, listed as Thermocladium modestius) MREEEAIAALSKLRAIMDRHNNWRRRETINLIPSENVMSPLAEYFYLNDMMGRYAEGTIGKRYYQGVSLVDEAEQMLVDLMSSLFSSRFTDVRPISGTVANMAVYHSVAGLGEKIASLPTAAGGHISHNETGAPKAFGLRVSYLPWSQENFNVDVDAARRLIAEERPKLVLLGASLYLFPHPIKELADAAHEVGAVLMHDSAHVLGLIAGHQFPNPLELGADIMTSSTHKTFPGPQGGVIFTTREDLFKEIQRSVFPVMTSNYHLHRYASTIVTAIEMSTYGDEYAATVRSNAKALAEQLHANGLPVVAEEHGFTATHQVAMDVSKFGGGGPIAKALEDANIIVNKNMLPWDKSPVKPSGIRMGVQEMTRMGMGKGEMAAVAELIAKVVIKGVEPSKVKPEVVELRRGFTKVRYGFDLSTLGLNCPCLPLL | no product |
| NoTTA: putative TTA, SEQ ID NO: 39, Nocardia otitidiscaviarum (protein, listed as Nocardia otitidiscaviarum) MNTFDILEQLARYEVGTSRRLHLIASENPLDSDTRVPYMLAGTLARYAFGEPGQPNWAWPGRETLIDLEADTAAALGALLGADHVNLRPTSGLSAMTVALSALAEHAGDRATVLSLAESDGGHGSTGFMARRFGLDWQRMPADPRTGVVDLDALARQARSARGPLVLYLDAFMARFPFDLTGIRGAVGDSALIHYDGSHPLGLIAGGRFQNPLAEGADSLGGSVHKTWPGPVGKGIIATNDSALASRFDTHAAGWISHHHPADLAALALSTAWMEQHAGDYATAVIANAVQLADELADGGLSICADDRGATASHQVWVDIAPICPAPVAAQRLYDAGIVVNAIAIPGLAEPGLRLGVQELTRWGLDRDGMTVLTWVLTQLLVHNAATAVVAPQMEALRTGLTLPEDRHGLEGFLRACDPQEVSVA | no product |
| DbTTA: putative TTA, SEQ ID NO: 40, Deltaproteobacteria bacterium (protein, listed as Deltaproteobacteria bacterium) LTNNRELMDRIGYNLSQGLVSSQHTASLVALFIALHEARLTGKAFAKQVVENARTLASRLAALGVPVLARSDGQFTDNHHFFINLTGVASAPHQMERLLRAHLVVQRGMPFRNVDALRVGVQEVTRRGYGPGEMAQLAEWIASIVIGGADPEVVAPAVQAMAKRFDTIYYTGETVDGKLDLPEIAAPSAKGRWVDYRHLGNDFAMDDTEFSEIRALGAAAGAFPNQTDSTGNVSLRSGARVFVSSSGSYIKHLADGQVVELDAVDPSGELIDYHGAALPSSESLMHFLVYQNVPAGAVVHTHYLLTNQEAADFDVAVIAPQEYASIALARAVAEASKRSRIVYIQKHGLVFWGTDTADCLSQVHNFIHNRPNRRAAEAVYAS | no product |

From patent publication US20250215467A1, “L-THREONINE TRANSALDOLASES AND USES THEREOF” (University of Delaware, priority 2022, published 2025)
